In US11673889B2, “Substituted imidazo[4,5-c][1,8]naphthyridines as phosphodiesterase inhibitors” (Nanjing Zhengxiang Pharmaceuticals Co., Ltd., priority 2019, dated 2023):
pIC50: −log10 of the molar value. Where two headings read alike, the source gives them in different places.

Tests used:
ENPP-1, MDA-MB-231 cells = target: T1, ENPP-1, MDA-MB-231 cells (Homo sapiens, UniProt P22413); assay: cell-based; conditions: for inhibition at 20 µM: MDA-MB-231, read-out: % Inhibition (at 20 μM)
T1 sequence (P22413 1-925): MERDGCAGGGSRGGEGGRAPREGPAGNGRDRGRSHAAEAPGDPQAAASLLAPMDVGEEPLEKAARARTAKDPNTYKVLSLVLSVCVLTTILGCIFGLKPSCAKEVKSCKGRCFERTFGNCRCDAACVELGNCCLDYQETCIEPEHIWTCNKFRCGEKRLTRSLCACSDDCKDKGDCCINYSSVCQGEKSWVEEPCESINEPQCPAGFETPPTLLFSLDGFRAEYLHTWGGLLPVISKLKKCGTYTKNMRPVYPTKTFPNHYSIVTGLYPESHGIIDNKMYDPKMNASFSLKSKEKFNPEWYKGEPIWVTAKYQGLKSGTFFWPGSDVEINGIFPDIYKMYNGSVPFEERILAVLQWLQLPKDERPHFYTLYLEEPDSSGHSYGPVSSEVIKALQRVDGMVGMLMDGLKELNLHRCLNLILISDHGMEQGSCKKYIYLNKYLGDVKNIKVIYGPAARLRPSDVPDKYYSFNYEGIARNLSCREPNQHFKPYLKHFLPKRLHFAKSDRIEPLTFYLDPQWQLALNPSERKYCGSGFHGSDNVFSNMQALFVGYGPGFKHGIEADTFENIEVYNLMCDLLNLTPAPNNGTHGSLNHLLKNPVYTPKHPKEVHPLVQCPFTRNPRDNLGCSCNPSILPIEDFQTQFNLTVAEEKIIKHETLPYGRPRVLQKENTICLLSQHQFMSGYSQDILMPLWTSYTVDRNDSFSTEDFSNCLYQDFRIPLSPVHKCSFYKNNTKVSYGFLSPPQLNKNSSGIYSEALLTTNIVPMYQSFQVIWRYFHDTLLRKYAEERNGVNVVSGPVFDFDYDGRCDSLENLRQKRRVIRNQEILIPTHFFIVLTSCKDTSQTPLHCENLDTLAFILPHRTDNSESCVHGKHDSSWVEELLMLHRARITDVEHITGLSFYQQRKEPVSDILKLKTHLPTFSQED

human soluble ENPP1 [1] = target: T2, human soluble ENPP1 (Homo sapiens, UniProt P22413); assay: ENPP1 activity assay using p-Nitrophenyl-5′-TMP as a substrate; type: biochemical
T2 construct: 20 ng of human soluble ENPP1
T2 sequence (P22413 103-925 limits assumed): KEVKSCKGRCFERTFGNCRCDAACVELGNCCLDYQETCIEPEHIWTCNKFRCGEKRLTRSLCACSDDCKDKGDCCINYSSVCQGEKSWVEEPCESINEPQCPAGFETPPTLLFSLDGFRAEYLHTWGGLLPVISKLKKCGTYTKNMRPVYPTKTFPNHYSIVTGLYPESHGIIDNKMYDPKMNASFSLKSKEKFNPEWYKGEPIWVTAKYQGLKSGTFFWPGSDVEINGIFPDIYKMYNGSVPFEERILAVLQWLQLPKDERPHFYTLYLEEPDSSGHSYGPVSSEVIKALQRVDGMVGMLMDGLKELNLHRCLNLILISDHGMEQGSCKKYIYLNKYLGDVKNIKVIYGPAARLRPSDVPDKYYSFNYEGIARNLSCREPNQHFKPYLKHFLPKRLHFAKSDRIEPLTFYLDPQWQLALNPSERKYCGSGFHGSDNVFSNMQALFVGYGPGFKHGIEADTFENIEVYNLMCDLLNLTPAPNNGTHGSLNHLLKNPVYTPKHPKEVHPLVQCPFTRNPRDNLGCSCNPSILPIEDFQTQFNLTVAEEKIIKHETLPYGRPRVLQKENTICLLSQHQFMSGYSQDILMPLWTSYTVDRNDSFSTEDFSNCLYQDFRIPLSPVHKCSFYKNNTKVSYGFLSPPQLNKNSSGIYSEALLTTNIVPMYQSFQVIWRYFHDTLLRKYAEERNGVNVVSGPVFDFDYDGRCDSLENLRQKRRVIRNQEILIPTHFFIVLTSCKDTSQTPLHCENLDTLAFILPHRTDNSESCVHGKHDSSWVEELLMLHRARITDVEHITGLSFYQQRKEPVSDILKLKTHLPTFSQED
Outline: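 Percent inhibition, set against uninhibited-enzyme and blank wells, was fitted to a four-parameter variable-slope model for IC50. Chromogenic read-out was p-nitrophenol released from TMP-pNP, added as a 2 mM […] solution for 1 h at RT. Before that, 20 ng soluble ENPP1 sat 30 min with compound.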

Pharmacokinetics in mice = type: in vivo; conditions: mouse, plasma, male CD-1 mice; for AUC / clearance / half-life / Vd: 1 mg/kg, iv; for Vd: read-out: Vdss
Method: A dosing solution of test sample was prepared at 1.0 mg/mL in 5% DMSO/40% PEG400/55% water and administered to male CD-1 mice (4-6 weeks old, 20-30 grams, 3 animals each group) via intravenous (IV) bolus at 1 mg/kg and by oral gavage (PO) at 5 mg/kg. Blood samples (˜0.03 mL each time point) were collected via the jugular vein into tubes containing sodium heparin as the anticoagulant at 0.033, 0.083, 0.25, 0.5, 1, 2, 4, 8 and 24 hours post dose for IV administration and 0.083, 0.25, 0.5, 1, 2, 4, 8 and 24 hours post dose for PO administration. The blood samples were then centrifuged for 5 minutes in a centrifuge refrigerated at 4° C. The resultant plasma samples were analyzed using LC/MS/MS to determine concentrations of test sample. Non-compartmental model with WinNonlin (Phoenix™, version 8.0) software was used to calculate pharmacokinetic (PK) parameters.

ENPP-1, HEK293 cells = target: T3, ENPP-1, HEK293 cells (Homo sapiens, UniProt P22413); assay: Cellular enzymatic assay of ENPP-1 inhibitors using TMP-pNP as substrate, HEK 293 cells; type: cell-based
T3 construct: ENPP-1 were mainly expressed on the surface of cell membrane; endogenous in cells; host or cells: HEK293
T3 sequence (P22413 1-925): T1 sequence (P22413 1-925)
Method: ENPP-1 were mainly expressed on the surface of cell membrane where it hydrolytes 2′3′-cGAMP to generate 5′-GMP and 5′-AMP. ENPP-1 also has the ability to hydrolyzes artificial phosphoric acid ester TMP-pNP to nucleotide-5′-monophosphate and p-nitrophcnol there, which is a chromogenic product.
8 point of different concentrations of each inhibitor were prepared with the final assay concentrations starting at 20 μM. 3× series dilution by DMEM medium without FBS was applied. Prior to adding inhibitors, 75000 cells per well were incubated at 37° C., 5% CO2 in DMEM for 24 hours. After removing the supernatant medium, 50 μL inhibitor solution was added into each well with cultured cells and incubate at 37° C., 5% CO2 for 60 minutes.
The IC50 values for percent inhibition versus compound concentration are determined by fitting the inhibition curves using a four-parameter variable slope model in GraphPad Prism® 8.

human soluble ENPP1 [2] = target: T2, human soluble ENPP1; assay: ENPP1 activity assay using p-Nitrophenyl-5′-AMP as a substrate; type: biochemical
Outline: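 Absorbance at 405 nm tracks p-nitrophenol from AMP-pNP hydrolysis after 1 h at room temperature, substrate added as 3 mM (2× final) following 30 min enzyme–compound preincubation. Enzyme: 35 ng human soluble ENPP1. IC50 fitted (variable-slope four-parameter) from percent inhibition normalized to max and blank.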

[3] = HEK293, HEK 293 cells, at 20 μM, read-out: Inhibition (at 20 μM)
[4] = HEK293, read-out: Inhibition (at 20 μM)

SMILES	pIC50 (ENPP-1, MDA-MB-231 cells)	inhibition at 20 µM (ENPP-1, MDA-MB-231 cells) [%]	pIC50 (human soluble ENPP1 [1])	AUC (Pharmacokinetics in mice) [ng·h/mL]	clearance (Pharmacokinetics in mice) [mL/min/kg]	half-life (Pharmacokinetics in mice) [h]	Vd (Pharmacokinetics in mice) [L/kg]	pIC50 (ENPP-1, HEK293 cells)	inhibition at 20 µM (ENPP-1, HEK293 cells; [3]) [%]	pIC50 (human soluble ENPP1 [2])	inhibition at 20 µM (ENPP-1, HEK293 cells; [4]) [%]	bioavailability (Pharmacokinetics in mice; oral gavage (PO) at 5 mg/kg vs IV 1 mg/kg) [%]
COc1ccc2c(ncc3ncn(Cc4ccc(S(N)(=O)=O)cc4)c32)n1 [Compound 39, 4-((7-methoxy-1H-imidazo[4,5-c][1,8]naphthyridin-1-yl)methyl)benzenesulfonamide]	6.40	82	9.60	115	115	0.33	3.1	6.14	94	9.38	–	–
COc1ccc2c(ncc3ncn(Cc4ccc(S(N)(=O)=O)cn4)c32)n1 [Compound 40, 6-((7-methoxy-1H-imidazo[4,5-c][1,8]naphthyridin-1-yl)methyl)pyridine-3-sulfonamide]	7.19	85	9.82	241	70	2.7	7.3	6.89	–	9.64	96	–
COc1ccc2c(ncc3ncn(Cc4ccc(NS(N)(=O)=O)cc4)c32)n1 [Compound 46, 4-((7-methoxy-1H-imidazo[4,5-c][1,8]naphthyridin-1-yl)methyl)phenyl sulfamide]	5.80	75	8.28	–	–	–	–	5.62	–	–	85	–
COc1ccc2c(ncc3nc(C(F)(F)F)n(Cc4ccc(S(N)(=O)=O)cc4)c32)n1 [Compound 47, 4-((7-methoxy-2-(trifluoromethyl)-1H-imidazo[4,5-c][1,8]naphthyridin-1-yl)methyl)benzenesulfonamide]	5.47	72	9.00	–	–	–	–	5.30	77	–	–	–
COc1cnc2c(c1)ncc1ncn(Cc3ccc(S(N)(=O)=O)cc3)c12 [Compound 49, 4-((7-methoxy-1H-imidazo[4,5-c][1,5]naphthyridin-1-yl)methyl)benzenesulfonamide]	5.22	67	8.72	–	–	–	–	5.00	67	8.32	–	–
COc1ccc2c(ncc3c2n(Cc2c(F)cc(S(N)(=O)=O)cc2F)c(=O)n3C)n1 [Compound 114, 3,5-difluoro-4-((7-methoxy-3-methyl-2-oxo-2,3-dihydro-1H-imidazo[4,5-c][1,8]naphthyridin-1-yl)methyl)benzenesulfonamide]	7.10	77	9.57	454	37	3.9	12	–	–	9.64	–	33
COc1ccc2c(ncc3nnn(Cc4ccc(S(N)(=O)=O)cn4)c32)n1 [Compound 119, 6-((7-methoxy-1H-[1,2,3]triazolo[4,5-c][1,8]naphthyridin-1-yl)methyl)pyridine-3-sulfonamide]	6.92	83	9.15	301	56	1.4	4.5	–	–	8.96	–	–
COc1ccc2c(ncc3nnn(Cc4ccc(S(N)(=O)=O)c(F)c4)c32)n1 [Compound 120, 2-fluoro-4-((7-methoxy-1H-[1,2,3]triazolo[4,5-c][1,8]naphthyridin-1-yl)methyl)benzenesulfonamide]	5.96	79	8.75	260	65	2	8.9	–	–	8.36	–	–
COc1ccc2c(ncc3cnn(Cc4ccc(S(N)(=O)=O)c(F)c4)c32)n1 [Compound 122a, 2-fluoro-4-((7-methoxy-1H-pyrazolo[4,3-c][1,8]naphthyridin-1-yl)methyl)benzenesulfonamide]	5.77	74	8.80	170	100	0.33	2	–	–	8.37	–	–
